Source: paper PMC9965539, “Adverse Toxic Effects of Tyrosine Kinase Inhibitors on Non-Target Zebrafish Liver (ZFL) Cells” (International Journal of Molecular Sciences, 2023)

How the values were obtained:
[1] = tested on: zebrafish liver cells (ZFL); test: Alkaline comet assay (DNA strand breaks); type: cell-based; details: 24 h of exposure, non-cytotoxic concentrations
Description: The induction of DNA strand breaks after TKI exposure was assessed by the comet assay according to Møller et al., with minor modifications. Briefly, ZFL cells were seeded at a density of 100,000 cells/well onto 12-well cell culture plates (Corning Costar Corporation, New York, NY, USA) and incubated for 24 h to attach. […] B(a)P (50 μM) was used as a positive control. After treatment, ZFL cells were trypsinized, collected, and centrifuged. Thirty μL of the cell suspension was mixed with 70 μL of 1% LMP agarose and placed on fully frosted slides pre-coated with 80 μL of 1% NMP agarose. Cells were then lysed for 1 h at 4 °C (2.5 M NaCl, 100 mM EDTA, 10 mM Tris, 1% Triton X-100, pH 10). DNA was subsequently denatured in electrophoresis buffer (1 mM EDTA, 300 mM NaOH, pH 13) for 20 min at 4 °C and slides were electrophoresed at 25 V (at 1 V/cm) for 20 min. Finally, nuclei were stained with GelRed (Biotium, Fremont, CA, USA). Images of 50 randomly selected nuclei per experimental point were acquired with the Eclipse 800 fluorescence microscope (Nikon, Tokyo, Japan) at 400× magnification using image analysis software (Comet Assay IV, Instem, UK). The statistical significance between control and treated groups was determined by one-way analysis of variance (ANOVA, Kruskal–Wallis) and Dunn’s multiple comparison test. * p < 0.05 was considered statistically significant.

[2] = tested on: zebrafish liver cells (ZFL); test: Propidium iodide live/dead staining by flow cytometry; type: cell-based; details: for percentage of PI negative cells: 72 h exposure, low concentrations
Description: Benzo[a]pyrene (50 μM), an indirect-acting genotoxic agent which requires metabolic activation for its genotoxic effects, and etoposide (0.17 μM), a direct-acting genotoxic agent, were selected as positive controls. After 72 h, floating and adherent cells were collected, resuspended in ice-cold 1x PBS, and immediately analyzed. Propidium iodide (PI) at a final concentration of 1 μg/mL was added to the cells 5 min before the start of measurements using the MACSQuant Analyzer 10 flow cytometer (Miltenyi Biotech, Bergisch Gladbach, Germany). MASCQuantifiy software (Miltenyi Biotech, Bergisch Gladbach, Germany) was used to quantify PI negative and positive cells. The experiments were repeated three times independently. Statistical significance between the treated groups and control was determined by one-way ANOVA with post hoc multiple comparison Dunett’s test using GraphPad Prism V6 (GraphPad Software, La Jolla, CA, USA). * p < 0.05 was considered statistically significant.

[3] = tested on: zebrafish liver cells (ZFL); test: Micronucleus detection by flow cytometry; type: cell-based; details: 72 h; for MNi frequency: non-cytotoxic concentrations
Description: ZFL cells were seeded onto 24-well culture plates (Nunclon) at a density of 35,000 cells per well for 24 h. […] Etoposide (0.17 μM and 0.68 μM) was used as a positive control. After 72 h, cells were placed on ice for 20 min, and subsequently a 0.05 mg/mL EMA solution was added to each well. The cells were placed on ice for 30 min and exposed to light for photoactivation of the EMA fluorochrome. Afterwards, cells were washed and resuspended in lysis solution (0.584 mg/mL NaCl, 1 mg/mL sodium citrate, and 0.3 μL/mL Triton X-100) containing 0.2 μM SYTOX Green and 0.25 mg/mL RNAse A, and incubated for 1 h in the dark at 37 °C. After incubation, lysis solution (85.6 mg/mL sucrose and 15 mg/mL citric acid) containing 0.2 μM SYTOX Green was added to the wells of the plate and incubated for a further 30 min at room temperature in the dark. Cells were analyzed on the same day using MACSQuant Analyzer 10 flow cytometer. MASCQuantify Software 2.11. was used to analyze each sample, and the percentage of micronuclei was determined after the acquisition of a total of 20,000 gated nuclei events, excluding EMA-positive events. One-way ANOVA with post hoc multiple comparison Dunett’s test using GraphPad Prism V6 (GraphPad Software, Carlsbad, CA, USA) was carried out. * p < 0.05 and *** p < 0.0001 were considered statistically significant.

[4] = tested on: zebrafish liver cells (ZFL); test: MTS assay, viability of ZFL cells; type: cell-based; details: for viability of the ZFL cells: 24, 48, 72 h, dose- and time-dependent, ERL and NIL up to their maximum solubility; for cytotoxic effects in ZFL cells (MTS): concentrations up to 60 µM, up to 72 h exposure
Description: (§1) The viability of ZFL cells after 24, 48, and 72 h of exposure to TKIs was determined using the tetrazolium-based (MTS) assay (Cell Titer 96 AQueous Non-Radioactive Cell Proliferation Assay; Promega, Madison, WI, USA) as previously described by Novak et al.. Cells were seeded in 96-well microtiter plates (Corning Costar Corporation, New York, NY, USA) at a density of 7000 cells/well. […] Three independent experiments were performed, each with five replicates per treatment point. The statistical significance between the treated groups and the solvent control was determined by Student’s t-test using GraphPad Prism V6 (GraphPad Software, La Jolla, CA, USA). *** (p < 0.001)was considered statistically significant.

H295R cells = tested on: H295R cells; set-up: method as in Silveira et al. 28; details: 10 µM; ref Silveira et al. 28; cited from earlier work
A549 cells = tested on: A549 cells; set-up: method as in Kryeziu et al. 65; details: 20 µM, 6 h exposure; ref Kryeziu et al. 65; cited from earlier work
HepG2 cells = details: 24 h of exposure; cited from earlier work
Huh-7 cells = details: 24 h; cited from earlier work
HepG2 and HepaRG cells = tested on: HepG2 and HepaRG cells; set-up: method as in PMID 28659801; details: 20 µM highest concentration tested; cited from earlier work
[5] = tested on: zebrafish liver cells (ZFL); test: Cell cycle analysis with flow cytometry; type: cell-based; details: 72 h; for effect on cell cycle progression: concentration-dependent, parallel decrease in S-phase fraction
Description: ZFL cells were seeded onto T25 culture plates at a density of 450,000 cells for 24 h. […] The positive control was etoposide (0.17 μM), which is known to arrest cells in the G2/M phase of the cell cycle. After 72 h, cells were trypsinized (0.25% trypsin-EDTA) and washed with 1x PBS before fixation in 4% paraformaldehyde (PFA). For flow cytometric analysis, fixed cells were washed in cold 1x PBS and stained with Hoechst 33258 dye (diluted in 0.1% Triton X-100 1:500) as described by Stampar et al.. Flow cytometric measurements were performed using a MACSQuant Analyzer 10 and the experiment was repeated three times independently. Each time, 20,000 single cells were recorded per experimental point. The data obtained were analyzed using FlowJo V10 software (Becton Dickinson, Franklin Lakes, NJ, USA). Statistical analysis for cell cycle was performed by the two-way ANOVA with Fisher’s LSD test using GraphPad Prism V6 (GraphPad Software, La Jolla, CA, USA). * p < 0.05, ** (p < 0.01), *** (p < 0.001) were considered statistically significant.

[6] = tested on: human lymphocytes or Chinese hamster ovary cells in vitro and rat bone marrow; details: ref 11 (REG), 69 (ERL), 59 (NIL); cited from earlier work
[7] = tested on: ovarian carcinoma A2780 cells; set-up: method as in PMID 28223694; details: up to 10 μM, 24 h; cited from earlier work
[8] = tested on: human ovarian cancer cells (SKOV-3 cells); set-up: method as in Mak et al. 66; details: 10 µM, 72 h; ref Mak et al. 66; cited from earlier work
H520 and H1975 cells = tested on: H520 and H1975 cells; set-up: method as in PMID 24447935; details: highest concentration tested; cited from earlier work
Alium cepa = tested on: Alium cepa; set-up: method as in doi:10.1508/cytologia.86.195; details: dose-dependent; cited from earlier work
[9] = tested on: certain target cancer cells; set-up: method as in ref 56, 57 (DAS), 58, 59 (REG); details: in vitro; 57 (DAS), 58, 59 (REG); cited from earlier work
[10] = MTS assay, viability of ZFL cells; type: cell-based, zebrafish; details: zebrafish, ZFL cells (zebrafish liver cell line), ZFL cells, read-out: IC50 for TKIs Cytotoxicity (95% Confidence Interval)
Description: as §1

[11] = tested on: human lymphoblastoid TK6 cells; set-up: method as in PMID 25111698; details: up to 4.4 μM, 24 h, without and with metabolic activation; cited from earlier work

| SMILES | concentration with statistically significant increase in percentage of tail DNA [1] | MNi frequency [3] | viability of the ZFL cells [4] | cytotoxic effects in ZFL cells (MTS) [4] | concentration that induced G0/G1 cell cycle arrest with decrease in number of cells in S phase [5] | effect on cell cycle progression [5] | mutagenicity/genotoxicity (chromosomal damage/genomic instability) [6] | percentage of PI negative cells [2] | other results |
| --- | --- | --- | --- | --- | --- | --- | --- | --- | --- |
| Cc1cn(-c2cc(NC(=O)c3ccc(C)c(Nc4nccc(-c5cccnc5)n4)c3)cc(C(F)(F)F)c2)cn1 [NIL, nilotinib] | ≥ 2000 nM | did not significantly increase | did not affect cell viability | no cytotoxic effects |  |  |  |  | decrease of the percentage of PI negative cells ([2]; highest concentration tested, 72 h): approximately 20%; decrease of survival (H295R cells): 62.9% |
| COc1cc([C@@H]2c3cc4c(cc3[C@@H](O[C@@H]3O[C@@H]5CO[C@@H](C)O[C@H]5[C@H](O)[C@H]3O)[C@H]3COC(=O)[C@H]23)OCO4)cc(OC)c1O [etoposide, Etoposide] |  |  |  |  |  |  |  |  | MNi in representative dot plot ([3]; 0.17 μM): increased amount of MNi |
| C#Cc1cccc(Nc2ncnc3cc(OCCOC)c(OCCOC)cc23)c1 [ERL, erlotinib] |  | did not significantly increase | did not affect cell viability | no cytotoxic effect | 40 µM | arrest of the cell cycle in the G0/G1 phase | not mutagenic/genotoxic | did not significantly decrease | DNA damage (alkaline comet assay) (A549 cells): did not induce DNA damage; concentration inducing apoptosis (HepG2 cells): 25 µM; concentration inducing cell cycle arrest (HepG2 cells): 10 µM; concentration with cell cycle arrest (Huh-7 cells): 25 µM; cytotoxicity (HepG2 and HepaRG cells): only slight cytotoxicity; MNi formation [7]: did not induce MNi formation; percentage of tail DNA [8]: increases the percentage of tail DNA; reduction in viability (H520 and H1975 cells): 20%; mitotic index and cytological aberrations (Alium cepa): decreased the mitotic index and increased cytological aberrations |
| CNC(=O)c1cc(Oc2ccc(NC(=O)Nc3ccc(Cl)c(C(F)(F)F)c3)c(F)c2)ccn1 [REG, regorafenib] | ≥ 800 nM | did not significantly increase | reduced |  | 3 µM | arrest of the cell cycle in the G0/G1 phase | not mutagenic/genotoxic | did not significantly decrease | DNA damage assessed by comet assay [9]: induce DNA damage; IC50 at 24 h ([10]; 24 h exposure): 5.64 µM; IC50 at 48 h ([10]; 48 h exposure): 4.54 µM; IC50 at 72 h ([10]; 72 h exposure): 3.59 µM; MNi formation [11]: did not induce MNi formation |
